Laboratory results published in patent publication US20210024879A1, “BIOSYNTHETIC ACTIVITY OF THE ANAPLASMA PHAGOCYTOPHILUM AND EHRLICHIA CHAFFEENSIS PHAGOSOME IN A HOST CELL-FREE MEDIUM” (Kansas State University Research Foundation, priority 2018, published 2021).

Assays:
[1] = tested on: E. chaffeensis cell-free organisms (DC and RC fractions); test: Protein synthesis by 35S-cysteine-methionine incorporation in cell-free E. chaffeensis in axenic medium; format: cell-based, Ehrlichia chaffeensis; details: for protein biosynthesis with different energy sources: RC form recovered from DH82 cultures, axenic medium supplemented with the carbon source, FIGS. 5A and 5B; for protein synthesis (35S Cys-Met incorporation) when inhibitor included in the media: axenic media with G6P, 24 h, renografin-purified organisms, FIG. 1
Method: Protein synthesis by ^35S-cysteine-methionine incorporation: Protein synthesis in cell-free purified fractions of E. chaffeensis was measured by incorporation of ^35S-Cys-Met (Perkin Elmer, Waltham, Mass.) as described by Omsland, A., et al., in Developmental stage-specific metabolic and transcriptional activity of Chlamydia trachomatis in an axenic medium. Proc Natl Acad Sci USA. […] For normalization of bacterial total protein content, the suspension of E. chaffeensis cell-free fractions were lysed in 1% (wt/vol) SDS for 5 minutes at 100° C. and the total protein concentration was determined using Protein Assay kit (Bio-Rad, Hercules, Calif.). Subsequently, the suspensions of E. chaffeensis cell-free fractions were equally split into micro-centrifuge tubes at the amount of 30 μg total protein. Partially opened micro-centrifuge tubes containing 500 μL of medium supplemented with 70 μCi of ^35S-Cys-Met were incubated at 37° C. for 24 hours in a tri-gas incubator set to maintain 2.5% O2. E. chaffeensis cell-free organisms were pelleted at the end of incubation by centrifugation at 15,000×g for 15 minutes at 4° C., washed with K-36 buffer (0.05M K2HPO4, 0.05M KH2PO4, 0.1M KCl, 0.15M NaCl, pH7.0) twice, and disrupted by adding 30 μL of 2×SDS-PAGE sample buffer and by boiling for 5 minutes. Ten μL of lysate each was then transferred to a tube containing 5 mL of biosafe liquid II and used for quantification of ^35S-Cys-Met incorporation using the protocol 4 (^35S) in a liquid scintillation counter (TRI-CARB 2100TR, PerkinElmer, Waltham, Mass.). For visualizing the radiolabel incorporation into bacterial proteins, equal volumes of sample lysates were also separated in an SDS/PAGE and the gel was dried and exposed to an X-ray film. Similarly, cell-free growth experiments were carried out in the absence of ^35S-Cys-Met, resolved on an SDS-PAGE gel, and stained using silver nitrate staining kit (Pierce/ThermoFisher Scientific) as per the manufacturer's recommendations.

[2] = tested on: E. chaffeensis cell-free phagosomes; test: 35S Cys-Met incorporation into cell-free phagosomes; format: cell-based, Ehrlichia chaffeensis; details: energy source or CHL in axenic medium
Method: (§1) Protein synthesis by ^35S-cysteine-methionine incorporation: Protein synthesis in cell-free purified phagosomes of A. phagocytophilum or E. chaffeensis was measured by incorporation of […] (Perkin Elmer, Waltham, Mass.) as described previously. For normalization of bacterial total protein content, the suspension of the cell-free phagosomes were lysed in 1% (wt/vol) SDS for 5 minutes at 100° C. and the total protein concentration was determined using Protein Assay kit (Bio-Rad, Hercules, Calif.). Subsequently, the suspensions of cell-free phagosomes were equally split into micro-centrifuge tubes at the amount of 30 μg total protein. Partially opened micro-centrifuge tubes containing 500 μL of medium supplemented with 70 μCi of ^35S-Cys-Met were incubated 24 hours at 37° C. in a tri-gas incubator set to maintain 2.5% O2. The cell-free organisms were pelleted at the end of incubation by centrifugation at 15,000×g for 15 minutes at 4° C., washed with K-36 buffer (0.05M K2HPO4, 0.05M KH2PO4, 0.1M KCl, 0.15M NaCl, pH7.0) twice, and disrupted by adding 30 μL of 2×SDS-PAGE sample buffer and by boiling for 5 minutes. Ten μL of lysate each was then transferred to a tube containing 5 mL of biosafe liquid II and used for quantification of ^35S-Cys-Met incorporation using the protocol 4 (^35S) in a liquid scintillation counter (TRI-CARB 2100TR, PerkinElmer, Waltham, Mass.). For visualizing the of radiolabel incorporation into phagosomes proteins, equal volumes of sample lysates were also separated in an SDS/PAGE and the gel was dried and exposed to an X-ray film. Similarly, cell-free growth experiments were carried out in the absence of added ^35S-Cys-Met, resolved on an SDS-PAGE gel and stained using silver nitrate staining kit (Pierce/ThermoFisher Scientific) as per the manufacturer's recommendations.

[3] = tested on: A. phagocytophilum cell-free phagosomes; test: as above; format: cell-based, Anaplasma phagocytophilum; details: energy source or CHL in axenic medium
Method: as §1

[4] = tested on: A. phagocytophilum cell-free phagosome; test: Protein biosynthesis by protein fractionation, silver stained SDS polyacrylamide gel; format: cell-based, Anaplasma phagocytophilum; details: FIGS. 15A and 15B, CHL-containing lanes
Method: Sodium dodecyl sulfate polyacrylamide gel electrophoresis: Five μL of NuPAGE LDS sample buffer and 2 μL of NuPAGE reducing agent (Invitrogen/ThermoFisher Scientific) were added to each of 10 μL of sample solution following cell-free incubation experiments in the axenic medium, boiled for 5 minutes, and then loaded onto a Mini-PROTEAN Precast Bis-Tris 4% to 14% gels (Bio-rad, Hercules, Calif.) and subjected to electrophoresis (100 mA/gel for 60 minutes). The gels were then stained with Silver staining kit (Pierce/ThermoFisher Scientific) according to the manufacturer's recommendations.
Western blot analysis to assess protein synthesis: For detection of the DnaK and P28 proteins of E. chaffeensis or the Dnak of A. phagocytophilum, the above described electrophoresed proteins were transferred onto a nitrocellulose membrane (Thermo Fisher Scientific, Waltham, Mass.) by subjecting to electro-blotting using an electrophoretic transfer unit (Bio-Rad). Protein transfer buffer was prepared as per the manufacturer's instructions and used in the protein transfer protocols. Subsequently, E. chaffeensis DnaK and P28 expressions were assessed using the polyclonal rabbit antisera raised against a recombinant E. chaffeensis proteins for DnaK and P28, respectively. […]

| SMILES | protein biosynthesis with different energy sources [1] | incorporation of 35S Cys-Met ([2]; FIG. 12B photograph) | incorporation of 35S Cys-Met ([2]; FIG. 12D graph) | incorporation of 35S Cys-Met ([3]; FIG. 12A photograph) | incorporation of 35S Cys-Met ([3]; FIG. 12C graph) | further results |
| --- | --- | --- | --- | --- | --- | --- |
| O=C(O)CCC(=O)C(=O)O [alpha ketoglutarate] | supported the protein biosynthesis similarly | – | – | – | – | – |
| Nc1ncnc2c1ncn2[C@@H]1O[C@H](COP(=O)(O)OP(=O)(O)OP(=O)(O)O)[C@@H](O)[C@H]1O [ATP, adenosine triphosphate] | – | showed incorporation | showed incorporation | showed incorporation | showed incorporation | – |
| CO[C@H]1/C=C/O[C@@]2(C)Oc3c(C)c(O)c4c(O)c(c(/C=N/N5CCN(C)CC5)c(O)c4c3C2=O)NC(=O)/C(C)=C\C=C\[C@H](C)[C@H](O)[C@@H](C)[C@@H](O)[C@@H](C)[C@H](OC(C)=O)[C@@H]1C [rifampin, reference compound] | – | – | – | – | – | protein synthesis (35S Cys-Met incorporation) when inhibitor included in the media [1]: abolished |
| O=C[C@H](O)[C@@H](O)[C@H](O)[C@H](O)COP(=O)(O)O [G6P, glucose 6-phosphate] | supported the protein biosynthesis similarly | showed incorporation | showed incorporation | showed incorporation | showed incorporation | – |
| O=C(N[C@H](CO)[C@H](O)c1ccc([N+](=O)[O-])cc1)C(Cl)Cl [CHL, chloramphenicol, reference compound] | – | no incorporation | no incorporation | no incorporation | no incorporation | protein synthesis (35S Cys-Met incorporation) when inhibitor included in the media [1]: abolished; protein synthesis (protein abundance, silver stained gel) [4]: no synthesis |
| CC(=O)[O-].[Na+] [sodium acetate] | supported the protein biosynthesis similarly | – | – | – | – | – |
| O[C@H](CS)[C@H](O)CS (racemic) [DTT, Dithiothreitol] | – | – | – | – | – | impact of exclusion of reducing agent on protein biosynthesis ([1]; axenic medium with G6P, absence of DTT, RC fraction): only a marginal negative effect |
